From patent US4622217A, “I-4-amino-3-iodobenzylguanidine as imaging and therapeutic agent” (The Regents of the University of Michigan, priority 1984, dated 1986)
Blank lines part the entries; values can stand above or below the compound they belong to.

Legend:
[1] = system: adrenergic nerves of the heart; assay: Selectivity for the adrenergic nerves of the heart; conditions: in vivo
[2] = Radio-decomposition on storage in buffer; assay type: physicochemical; conditions: up to 14 days, pH 4.8 sodium acetate buffer (0.005M), 1% (v/v) benzyl alcohol, 4° C., dark
[3] = Biological tissue distribution in monkeys after intravenous injection; assay type: in vivo, monkey; conditions: 3 hours, i.v. 100 μCi
Method: (§1) Biological tissue distribution studies were performed in rats, dogs, and monkeys injected intravenously with 25 μCi, 100 μCi and 100 μCi, respectively, of I-125 4-amino-3-iodobenzylguanidine in an average volume of 0.2 ml, 2 ml, and 1 ml, respectively. Representative samples of tissues were counted in an autogamma counter with corrections made for radioactive decay, background, and counter efficiency. To normalize for differences in animal weights, tissue concentrations are expressed as percent kilogram dose per gram.

[4] = Biological tissue distribution in dogs after intravenous injection; assay type: in vivo, dog (Female Mongrel); conditions: i.v. 100 μCi
Method: as §1

[5] = Biological tissue distribution in rats after intravenous injection; assay type: in vivo, rat (Female Sprague-Dawley); conditions: 90 min, i.v. 25 μCi
Method: as §1

adrenergic tissues = assay: Accumulation in adrenergic tissues; assay type: in vivo; conditions: localizes in adrenergic neurons of the heart and chromaffin granules of the adrenal medulla

Structure (SMILES): N=C(N)NCc1ccc(N)c(I)c1 [radioiodinated compound, radioiodinated 4-amino-3-iodobenzylguanidine]
selectivity for the adrenergic nerves of the heart [1]: high degree of selectivity for the adrenergic nerves of the heart

degraded at 336 h [2]: < 4%
Structure (SMILES): N=C(N)NCc1ccc(N)c([131I])c1 [I-131-labeled compound, ^131 I-4-Amino-3-Iodobenzylguanidine]

tissue concentration (Mean + S.E.M.) ([3]; Adrenal Cortex): 0.60 ± .04 % Kg Dose/g
tissue concentration (Mean + S.E.M.) ([3]; Adrenal Modullae): 1.98 ± .14 % Kg Dose/g
tissue concentration (Mean + S.E.M.) ([3]; Blood): 0.03 ± .01 % Kg Dose/g
tissue concentration (Mean + S.E.M.) ([3]; Heart (Left Ventricle)): 0.85 ± .11 % Kg Dose/g
tissue concentration (Mean + S.E.M.) ([3]; Liver): 0.17 ± .04 % Kg Dose/g
tissue concentration (Mean + S.E.M.) ([3]; Lung): 0.99 ± .53 % Kg Dose/g
tissue concentration (Mean + S.E.M.) ([3]; Muscle): 0.03 ± .55 % Kg Dose/g
tissue concentration (Mean + S.E.M.) ([3]; Thyroid): 1.07 ± .55 % Kg Dose/g
tissue concentration (Mean + S.E.M.) ([4]; 30 min, Adrenal Cortex): 0.62 ± 0.16 % kg dose/g
tissue concentration (Mean + S.E.M.) ([4]; 30 min, Adrenal Medulla): 8.8 ± 2.8 % kg dose/g
tissue concentration (Mean + S.E.M.) ([4]; 30 min, Blood): 0.03 % kg dose/g
tissue concentration (Mean + S.E.M.) ([4]; 30 min, Heart (Left Ventricle)): 0.49 ± 0.05 % kg dose/g
tissue concentration (Mean + S.E.M.) ([4]; 30 min, Liver): 0.36 ± 0.02 % kg dose/g
tissue concentration (Mean + S.E.M.) ([4]; 30 min, Lung): 0.88 ± 0.61 % kg dose/g
tissue concentration (Mean + S.E.M.) ([4]; 30 min, Muscle): 0.05 ± 0.02 % kg dose/g
tissue concentration (Mean + S.E.M.) ([4]; 30 min, Thyroid): 1.02 ± 0.06 % kg dose/g
tissue concentration (Mean + S.E.M.) ([4]; 2 hours, Adrenal Cortex): 0.51 ± 0.15 % kg dose/g
tissue concentration (Mean + S.E.M.) ([4]; 2 hours, Adrenal Medulla): 10.4 ± 0.8 % kg dose/g
tissue concentration (Mean + S.E.M.) ([4]; 2 hours, Blood): 0.03 % kg dose/g
tissue concentration (Mean + S.E.M.) ([4]; 2 hours, Heart (Left Ventricle)): 0.52 ± 0.02 % kg dose/g
tissue concentration (Mean + S.E.M.) ([4]; 2 hours, Liver): 0.2 ± 0.02 % kg dose/g
tissue concentration (Mean + S.E.M.) ([4]; 2 hours, Lung): 1.26 ± 0.2 % kg dose/g
tissue concentration (Mean + S.E.M.) ([4]; 2 hours, Muscle): 0.04 ± 0.01 % kg dose/g
tissue concentration (Mean + S.E.M.) ([4]; 2 hours, Thyroid): 0.85 ± 0.11 % kg dose/g
tissue concentration (Mean + S.E.M.) ([4]; 72 hours, Adrenal Cortex): 0.13 ± 0.06 % kg dose/g
tissue concentration (Mean + S.E.M.) ([4]; 72 hours, Adrenal Medulla): 18.3 ± 1.8 % kg dose/g
tissue concentration (Mean + S.E.M.) ([4]; 72 hours, Blood): 0.02 % kg dose/g
tissue concentration (Mean + S.E.M.) ([4]; 72 hours, Heart (Left Ventricle)): 0.06 ± 0.01 % kg dose/g
tissue concentration (Mean + S.E.M.) ([4]; 72 hours, Liver): 0.05 % kg dose/g
tissue concentration (Mean + S.E.M.) ([4]; 72 hours, Lung): 0.09 ± 0.01 % kg dose/g
tissue concentration (Mean + S.E.M.) ([4]; 72 hours, Muscle): 0.01 % kg dose/g
tissue concentration (Mean + S.E.M.) ([4]; 72 hours, Thyroid): 14.6 ± 2.4 % kg dose/g
tissue concentration (Mean + S.E.M.) ([5]; Blood): 0.08 ± .01 % Kg Dose/g
tissue concentration (Mean + S.E.M.) ([5]; Left Atrium): 0.55 ± .06 % Kg Dose/g
tissue concentration (Mean + S.E.M.) ([5]; Left Ventricle): 0.46 ± .05 % Kg Dose/g
tissue concentration (Mean + S.E.M.) ([5]; Liver): 0.09 ± .01 % Kg Dose/g
tissue concentration (Mean + S.E.M.) ([5]; Right Atrium): 0.66 ± .05 % Kg Dose/g
tissue concentration (Mean + S.E.M.) ([5]; Right Ventricle): 0.70 ± .02 % Kg Dose/g
tissue concentration (Mean + S.E.M.) ([5]; Spleen): 0.35 ± .01 % Kg Dose/g
Structure (SMILES): N=C(N)NCc1ccc(N)c([125I])c1 [I-125 4-amino-3-iodobenzylguanidine]

Structure (SMILES): N=C(N)NCc1ccc(N)c(I)c1 [4-amino-3-iodobenzylguanidine]
accumulation in adrenergic tissues (adrenergic tissues): accumulated in adrenergic tissues in a manner similar to norepinephrine and guanethidine
